Source: US20090298903A1, “USE OF TETRAMIC ACID DERIVATIVES FOR INSECT CONTROL” (priority 2006, published 2009)

Key:
Assay type in all cases: in vivo
Dasineura mali = experiment: Example 19 a): apple trees against Dasineura mali; settings: 59 d after treatment; larvae, apple twigs; Pirimicarb (50 WG) 125, (I-4) (100 OD) 72 g a.s./ha/m crown level
Description: Apple trees cv. “Elan” which are approximately 16 years old are treated, in 3 replications, against the Dasineura mali. Here, the active substance Example (I-4) (100 OD) is tested at the specified application rate against the commercial standard and Pirimicarb (50 WG) at the specified application rate. The application is carried out with a spray diffuser. Here, the treatment is effected with a water application rate of 1000 l/ha/m crown level.
The test is evaluated 59 days after the treatment by scoring the destruction of the larvae on the basis of the adults present on the twigs with the aid of the Abbott method.

Rhagoletis cerasi = experiment: Example 21: cherry trees against Rhagoletis cerasi; settings: 23 d after treatment 2, larvae on fruits, Dimethoate (400 EC) 200, (I-4) (150 OD) 75 g a.s./ha/m crown level
Description: Cherry trees cv. “Van” which are approximately 26 years old are treated, in three replications, against Rhagoletis cerasi. The application is carried out with an atomizer. Here, the active substance Example (I-4) (150 OD) and the commercial standard dimethoate (400 EC) are applied at the specified application rates. Two applications are carried out at an interval of 6 days with a water application rate of 500 l/ha/m crown level.
The test is evaluated 23 days after treatment 2 by scoring the destruction rates of the animals (larvae) on the fruits with the aid of the Abbott formula.

Lema melanopa = experiment: Example 25: winter wheat against Lema melanopa; settings: 3 days after the last of two treatments (interval 7 days), larvae, Calypso (240 OD) 72, (I-4) (240 SC + 0.2% rapeseed oil methyl ester) 96 g a.s./ha
Description: Plots approx. 25 m^2 in size which are planted with winter wheat cv. “Capfem” are treated, in four replications, against Lema melanopa. The application is carried out with a knapsack sprayer which is operated with pressurized air. Here, the active substance Example (I-4) (240 SC), in a tank mix together with 0.2% a.s. rapeseed oil methyl ester (500 EW) and the commercial standard Calypso (240 OD), is applied at the specified application rates. Two applications are carried out at an interval of 7 days, with a water application rate of 350 l/ha.
(§1) The test is evaluated 3 days after the last treatment by scoring the destruction rate of the larvae on the plants.

Dacus ciliatus = experiment: Example 22A: bottle gourds against Dacus ciliatus
Description: Plots approx. 10 m^2 in size which are planted with bottle gourds cv. “Waltham” are treated, in three replications, against Dacus ciliatus. The application is carried out with a motor-operated knapsack sprayer. Here, the active substance Example (I-4) (150 OD) and the commercial standard Fenthion (500 EC) are tested at the specified application rates. Three applications are carried out at in each case an interval of 7 days. The water application rate is approx. 500 l/ha.
The test is evaluated 8, 14 and 21 days after treatment 1 by scoring the infestation of the fruits.

[1] = tested on: Anthonomus pomorum, the apple blossom weevil; experiment: Example 26B: apple trees against apple blossom weevil; settings: 22 d after treatment, larvae on inflorescences, Thiacloprid (SC 480) 48 + Deltamethrin 3.75 tank mix, (I-4) (150 OD) 48 g a.s./ha/m crown level
Description: Apple trees cv. “Holsteiner Cox” in plots approx. 20 m^2 in size are treated, in 4 replications, against Anthonomus pomorum, the apple blossom weevil. Here, the active substance Example (I-4) (150 OD) at the specified application rate is tested against a tank mix of the commercial standards Thiacloprid (SC 480) and Deltamethrin-liquid in the specified application rates. The application is carried out with a knapsack sprayer. Here, the treatment is effected with a water application rate of 500 l/ha/m crown level.
The test is evaluated 22 days after the treatment by scoring the destruction of the larvae on the inflorescences with the aid of the Abbott method.

Thrips tabaci = experiment: Example 11: dwarf beans against Thrips tabaci
Description: Plots approx. 26 m^2 in size which are planted with dwarf beans are treated 16 days after emergence against Thrips tabaci, in four replications. The application is carried out with a knapsack sprayer which is operated with pressurized air. Here, the active substances Example (I-2) (240 SC) (I-4) (240 SC) and Example (I-9) (240 SC), in a tank mix with 0.1% a.s. rapeseed oil methyl ester (500 EW), are tested against the commercial standard Profenofos (720 EC) at the specified application rates. The water application rate is 1000 l/ha. Two applications are carried out at an interval of 10 days.
The test is evaluated 5 and 11 days after the first treatment by scoring the destruction rate of the nymphs on the leaves.

Pegomya spp. = experiment: Example 17: winter wheat against Pegomya spp.; settings: 3 days after the last of two treatments (interval 7 days), larvae, Thiacloprid (240 OD) 72, (I-4) (240 SC + 0.2% rapeseed oil methyl ester) 96 g a.s./ha
Description: Plots approx. 25 m^2 in size which are planted with winter wheat cv. “Capfern” are treated, in four replications, against Pegomya spp. The application is carried out with a knapsack sprayer which is operated with pressurized air. Here, the active substance Example (I-4) (240 SC), in a tank mix with 0.2% a.s. rapeseed oil methyl ester (500 EW) and the commercial standard Thiacloprid (240 OD), is tested at the specified application rates. Two applications are carried out at an interval of 7 days. The water application rate is 350 l/ha.
as §1

[2] = tested on: Frankliniella occidentalis; experiment: Example 2: bell peppers against Frankliniella occidentalis; settings: Acrinathrin 60, (I-9) 54, (I-4) 60 g a.s./ha, (I-9)/(I-4) 240 SC + 0.1% rapeseed oil methyl ester
Description: Plots 10 m^2 in size which are planted with bell peppers cv. “Zingaro” are treated, in three replications, against Frankliniella occidentalis. The application is effected with a knapsack sprayer which is operated with pressurized air. Here, the active substances Example (I-9) (240 SC) and Example (I-4) (240 SC), in the form of a tank mix together with 0.1% a.s. rapeseed oil methyl ester (500 EW) and the commercial standard acrinathrin (075 EW), are applied at the specified application rates. Two applications are carried out at an interval of 24 days, with a water application rate of 1000 l/ha.
The test is evaluated 17 and 21 days after treatment 1 and 4 days after treatment 2 by scoring the destruction of the animals (nymphs) on the flowers.

## CCOC(=O)OC1=C(c2cc(C)ccc2C)C(=O)N[C@]12CC[C@@H](OC)CC2 [Example (I-4)]
Dasineura mali
  Efficacy (%) Abbott 59 d: 95.1%
Rhagoletis cerasi
  Efficacy (% Abbott) 23 d: 100 % Abbott
Lema melanopa
  Efficacy (% Abbott) 10 d: 82.1 % Abbott
Dacus ciliatus; 8 d after treatment 1, infestation of fruits, Fenthion (500 EC) 300, (I-4) (150 OD) 200 g a.s./ha, three applications, 7-day intervals
  Efficacy (% Abbott) 8 d: 59.5 % Abbott
Dacus ciliatus; 14 d after treatment 1, Fenthion 300, (I-4) 200 g a.s./ha
  Efficacy (% Abbott) 14 d: 48.9 % Abbott
Dacus ciliatus; 21 d after treatment 1, Fenthion 300, (I-4) 200 g a.s./ha
  Efficacy (% Abbott) 21 d: 44.5 % Abbott
[1]
  Efficacy (%) Abbott 22 d: 88%
Thrips tabaci; 5 d after first treatment, nymphs on leaves, Profenofos (720 EC) 1300, (I-9) 54, (I-2) 54, (I-4) 60 g a.s./ha, 240 SC + 0.1% rapeseed oil methyl ester
  Efficacy (% Abbott) 5 d: 60 % Abbott
Thrips tabaci; 11 d after first treatment (second application at 10 days), Profenofos 1300, (I-9) 54, (I-2) 54, (I-4) 60 g a.s./ha
  Efficacy (% Abbott) 11 d: 90 % Abbott
Pegomya spp.
  Efficacy (% Abbott) 10 d: 100 % Abbott
[2]; 4 d after treatment 2, nymphs on flowers
  Efficacy (% Abbott) 4 d (2): 80 % Abbott
[2]; 17 d after treatment 1, nymphs on flowers
  Efficacy (% Abbott) 17 d (1): 71 % Abbott
[2]; 21 d after treatment 1, nymphs on flowers
  Efficacy (% Abbott) 21 d (1): 85 % Abbott
